Source: patent US9586951B2 (FUJIFILM Corporation, priority 2013, dated 2017)
Counter-ions that a name gives are not always drawn.

Target: T1, ATM (Homo sapiens, UniProt Q13315)
T1 construct: detecting phosphorylation of Chk2 in a human non-small cell lung cancer cell line NCI-H460 (ATCC company); host or cells: NCI-H460 human non-small cell lung cancer cells
Assay: ATM inhibition test (phosphorylation of Chk2 generated by ionizing radiation, AlphaScreen SureFire)
Format: cell-based
Conditions: phosphorylated Chk2 in NCI-H460 cells, ionizing radiation 8Gy, 1 hour after test compound treatment; read-out: ATM inhibitory activity
Outline: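 In NCI-H460 cells, radiation-triggered Chk2 phosphorylation (8Gy, 1 h) is detected by AlphaScreen SureFire following 1 h compound exposure.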

T1 sequence (Q13315 whole entry): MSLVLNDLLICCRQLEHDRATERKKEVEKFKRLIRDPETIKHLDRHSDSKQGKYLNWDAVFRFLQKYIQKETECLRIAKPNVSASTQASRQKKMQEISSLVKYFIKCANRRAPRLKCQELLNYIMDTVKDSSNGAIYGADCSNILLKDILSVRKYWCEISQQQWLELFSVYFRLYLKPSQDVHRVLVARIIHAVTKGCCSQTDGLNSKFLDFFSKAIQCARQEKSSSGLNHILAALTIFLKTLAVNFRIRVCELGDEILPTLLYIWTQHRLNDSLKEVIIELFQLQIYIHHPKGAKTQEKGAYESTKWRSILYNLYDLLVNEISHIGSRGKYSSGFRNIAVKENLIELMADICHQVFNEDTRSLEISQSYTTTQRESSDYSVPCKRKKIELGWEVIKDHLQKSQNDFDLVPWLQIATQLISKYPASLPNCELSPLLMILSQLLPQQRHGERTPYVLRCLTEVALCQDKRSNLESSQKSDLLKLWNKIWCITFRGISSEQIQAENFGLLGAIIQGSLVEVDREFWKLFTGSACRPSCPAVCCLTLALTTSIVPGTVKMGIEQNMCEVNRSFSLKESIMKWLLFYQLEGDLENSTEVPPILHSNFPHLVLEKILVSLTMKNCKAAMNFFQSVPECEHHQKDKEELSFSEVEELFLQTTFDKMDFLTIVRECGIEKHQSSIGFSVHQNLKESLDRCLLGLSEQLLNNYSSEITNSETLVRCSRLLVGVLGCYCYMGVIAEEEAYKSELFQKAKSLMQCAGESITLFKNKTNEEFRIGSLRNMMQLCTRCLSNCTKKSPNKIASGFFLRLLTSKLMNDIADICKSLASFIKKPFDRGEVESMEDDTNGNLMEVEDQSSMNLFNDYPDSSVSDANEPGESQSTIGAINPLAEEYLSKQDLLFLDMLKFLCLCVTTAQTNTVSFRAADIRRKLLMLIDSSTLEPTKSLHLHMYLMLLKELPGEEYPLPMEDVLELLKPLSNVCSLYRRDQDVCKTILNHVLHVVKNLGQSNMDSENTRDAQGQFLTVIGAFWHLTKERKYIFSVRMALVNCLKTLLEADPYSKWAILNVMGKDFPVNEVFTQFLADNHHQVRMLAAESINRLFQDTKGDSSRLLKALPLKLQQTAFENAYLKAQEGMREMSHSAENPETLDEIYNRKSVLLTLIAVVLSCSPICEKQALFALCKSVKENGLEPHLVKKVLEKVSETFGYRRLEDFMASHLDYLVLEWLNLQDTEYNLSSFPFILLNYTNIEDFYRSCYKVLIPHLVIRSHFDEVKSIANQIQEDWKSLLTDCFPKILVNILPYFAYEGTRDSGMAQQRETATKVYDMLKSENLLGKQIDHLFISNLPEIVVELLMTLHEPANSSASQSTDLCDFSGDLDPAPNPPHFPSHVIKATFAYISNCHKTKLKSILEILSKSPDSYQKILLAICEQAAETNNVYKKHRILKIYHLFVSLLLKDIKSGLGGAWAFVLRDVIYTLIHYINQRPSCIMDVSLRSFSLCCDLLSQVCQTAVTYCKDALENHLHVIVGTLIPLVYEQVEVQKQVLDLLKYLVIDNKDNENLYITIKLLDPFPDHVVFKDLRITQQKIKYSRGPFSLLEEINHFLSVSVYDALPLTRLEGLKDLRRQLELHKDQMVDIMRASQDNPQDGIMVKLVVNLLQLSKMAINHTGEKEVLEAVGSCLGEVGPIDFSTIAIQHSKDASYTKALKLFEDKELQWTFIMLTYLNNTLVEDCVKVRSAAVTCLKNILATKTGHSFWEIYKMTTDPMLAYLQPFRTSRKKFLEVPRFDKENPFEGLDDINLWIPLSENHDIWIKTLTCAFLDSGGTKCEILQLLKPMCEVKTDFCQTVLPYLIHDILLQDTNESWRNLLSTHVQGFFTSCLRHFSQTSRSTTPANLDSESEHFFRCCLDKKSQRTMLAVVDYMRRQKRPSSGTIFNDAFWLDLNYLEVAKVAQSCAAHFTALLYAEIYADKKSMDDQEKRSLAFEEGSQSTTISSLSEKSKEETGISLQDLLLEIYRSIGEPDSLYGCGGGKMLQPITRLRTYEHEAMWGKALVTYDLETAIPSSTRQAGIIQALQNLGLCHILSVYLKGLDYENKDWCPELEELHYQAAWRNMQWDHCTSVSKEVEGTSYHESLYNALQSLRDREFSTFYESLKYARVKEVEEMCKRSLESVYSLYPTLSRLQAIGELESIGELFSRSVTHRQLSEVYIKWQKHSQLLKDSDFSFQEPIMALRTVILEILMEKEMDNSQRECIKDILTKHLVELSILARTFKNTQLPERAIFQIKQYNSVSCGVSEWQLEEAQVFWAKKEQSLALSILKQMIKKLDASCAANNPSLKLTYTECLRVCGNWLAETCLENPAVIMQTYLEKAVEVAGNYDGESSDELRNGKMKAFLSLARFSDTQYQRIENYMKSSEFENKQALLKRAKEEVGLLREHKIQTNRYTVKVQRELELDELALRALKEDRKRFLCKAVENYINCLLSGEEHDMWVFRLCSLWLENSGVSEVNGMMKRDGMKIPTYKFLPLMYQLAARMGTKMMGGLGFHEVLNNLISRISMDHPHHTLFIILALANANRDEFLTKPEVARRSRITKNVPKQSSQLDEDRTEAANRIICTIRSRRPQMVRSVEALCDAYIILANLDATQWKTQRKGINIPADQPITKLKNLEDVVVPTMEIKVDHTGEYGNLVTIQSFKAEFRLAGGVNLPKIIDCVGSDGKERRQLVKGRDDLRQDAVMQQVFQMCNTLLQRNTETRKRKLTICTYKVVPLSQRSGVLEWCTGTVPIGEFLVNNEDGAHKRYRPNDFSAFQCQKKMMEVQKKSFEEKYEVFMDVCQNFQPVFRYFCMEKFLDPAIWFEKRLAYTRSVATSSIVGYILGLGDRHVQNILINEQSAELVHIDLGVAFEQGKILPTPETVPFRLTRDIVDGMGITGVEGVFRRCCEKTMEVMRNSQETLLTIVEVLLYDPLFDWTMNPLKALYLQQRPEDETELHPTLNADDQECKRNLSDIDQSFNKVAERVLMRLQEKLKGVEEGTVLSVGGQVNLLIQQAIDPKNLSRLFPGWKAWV

SMILES	IC50
COc1ccc(C2c3cc(N)ccc3Oc3c2ccnc3-c2cc(N3CCOCC3)cc(=O)[nH]2)cc1 (centres unmarked) [Example 2-66, Hydrochloride of 6-(7-amino-5-(4-methoxyphenyl)-5H-chromeno[2,3-c]pyridin-1-yl)-4-morpholinopyridin-2(1H)-one]	100 to 500 nM
CC(=O)Nc1ccc(CCN2CCC(Nc3ccc4c(c3)Cc3cccc(-c5cc(N6CCOCC6)cc(=O)[nH]5)c3O4)CC2)cc1 [Example 2-32, N-(4-(2-(4-((5-(4-morpholino-6-oxo-1,6-dihydropyridin-2-yl)-9H-xanthen-2-yl)amino)piperidin-1-yl)ethyl)phenyl)acetamide]	100 to 500 nM
CC(C)(C)OC(=O)N1CCC[C@H]1CNc1ccc2c(c1)Cc1cccc(-c3cc(N4CCOCC4)cc(=O)[nH]3)c1O2 [Example 2-21-3, (S)-tert-Butyl 2-(((5-(4-morpholino-6-oxo-1,6-dihydropyridin-2-yl)-9H-xanthen-2-yl)amino)methyl) pyrrolidine-1-carboxylate]	500 to 2000 nM
CN(C)CC(CN1CCOCC1)Nc1ccc2c(c1)Sc1cccc(-c3cc(N4CCOCC4)cc(=O)[nH]3)c1S2 (centres unmarked) [Example 9-3, 6-(7-((1-(Dimethylamino)-3-morpholinopropan-2-yl)amino)thianthren-1-yl)-4-morpholinopyridin-2(1H)-one]	500 to 2000 nM
CCN1CCN(CC(C)Nc2ccc3c(c2)Sc2cccc(-c4cc(N5CCOCC5)cc(=O)[nH]4)c2S3)CC1 (centres unmarked) [Example 1-13-13, 6-(7-((1-(4-Ethylpiperazin-1-yl)propan-2-yl)amino)thianthren-1-yl)-4-morpholino pyridin-2(1H)-one]	100 to 500 nM
Cc1ccc(C(Nc2ccc3c(c2)Sc2cccc(-c4cc(N5CCOCC5)cc(=O)[nH]4)c2S3)C2CN(CCO)CCO2)nc1 (racemic) [Example 1-57-2, 6-(7-(((4-(2-Hydroxyethyl)morpholin-2-yl)(5-methylpyridin-2-yl)methyl)amino)thianthren-1-yl)-4-morpholinopyridin-2(1H)-one]	< 100 nM
O=c1cc(N2CCOCC2)cc(-c2cccc3c2Oc2ccc(NCc4ccoc4)cc2C3)[nH]1 [Example 2-14-34, 6-(7-((Furan-3-ylmethyl)amino)-9H-xanthen-4-yl)-4-morpholino pyridin-2(1H)-one]	100 to 500 nM
CC(Nc1ccc2c(c1)Cc1cccc(-c3cc(N4CCOCC4)cc(=O)[nH]3)c1O2)c1cccnc1 (racemic) [Example 2-11-1, 4-morpholino-6-(7-((1-(pyridin-3-yl)ethyl)amino)-9H-xanthen-4-yl)pyridin-2(1H)-one]	100 to 500 nM
CCOc1ccc(CNc2ccc3c(c2)Cc2cccc(-c4cc(N5CCOCC5)cc(=O)[nH]4)c2O3)cn1 [Example 2-2-23, 6-(7-(((6-Ethoxypyridin-3-yl)methyl)amino)-9H-xanthen-4-yl)-4-morpholino pyridin-2(1H)-one]	100 to 500 nM
CC(Nc1ccc2c(c1)Cc1cccc(-c3cc(N4CCOCC4)cc(=O)[nH]3)c1O2)c1nccc(CF)n1 (single isomer, unassigned) [Example 2-14-94-2, 6-(7-((1-(4-(fluoromethyl)pyrimidin-2-yl)ethyl)amino)-9H-xanthen-4-yl)-4-morpholinopyridin-2(1H)-one]	100 to 500 nM
COc1ccc(CCN2CCC(Nc3ccc4c(c3)Cc3ccc(F)c(-c5cc(N6CCOCC6)cc(=O)[nH]5)c3O4)CC2)cc1 [Example 2-47, 6-(3-Fluoro-7-((1-(4-methoxyphenethyl)piperidin-4-yl)amino)-9H-xanthen-4-yl)-4-morpholinopyridin-2(1H)-one]	100 to 500 nM
CN(C)[C@H]1CC[C@H](N(C)c2ccc3c(c2)Cc2cccc(-c4cc(N5CCOCC5)cc(=O)[nH]4)c2O3)CC1 [Example 2-10, 6-(7-(((Trans)-4-(dimethylamino)cyclohexyl)(methyl)amino)-9H-xanthen-4-yl)-4-morpholinopyridin-2(1H)-one]	500 to 2000 nM
COc1ccc(CNc2ccc3c(c2)Sc2cccc(-c4cc(N5CCOCC5)cc(=O)[nH]4)c2S3)cn1 [Example 1-12-16, 6-(7-(((6-Methoxypyridin-3-yl)methyl)amino)thianthren-1-yl)-4-morpholino pyridin-2 (1H)-one]	100 to 500 nM
COCC[C@H](CN1CCOCC1)Nc1ccc2c(c1)Sc1cccc(-c3cc(N4CCOCC4)cc(=O)[nH]3)c1S2 [Example 1-59-1, (R)-6-(7-((4-methoxy-1-morpholinobutan-2-yl)amino)thianthren-1-yl)-4-morpholinopyridin-2(1H)-one]	< 100 nM
N#CCC(CN1CCOCC1)Nc1ccc2c(c1)Sc1cccc(-c3cc(N4CCOCC4)cc(=O)[nH]3)c1S2 (centres unmarked) [Example 9-2, 4-Morpholino-3-((6-(4-morpholino-6-oxo-1,6-dihydropyridin-2-yl)thianthren-2-yl)amino)butanenitrile]	100 to 500 nM
Cc1ccncc1CNc1ccc2c(c1)Sc1cccc(-c3cc(N4CCOCC4)cc(=O)[nH]3)c1O2 [Example 4-4-19, 6-(8-(((4-Methylpyridin-3-yl)methyl)amino)phenoxathiin-4-yl)-4-morpholino pyridin-2(1H)-one]	100 to 500 nM
CC(CNC1CCCC1)Nc1ccc2c(c1)Sc1cccc(-c3cc(N4CCOCC4)cc(=O)[nH]3)c1S2 (centres unmarked) [Example 1-13-8, 6-(7-((1-(Cyclopentylamino)propan-2-yl)amino)thianthren-1-yl)-4-morpholino pyridin-2 (1H)-one]	100 to 500 nM
O=c1cc(N2CCOCC2)cc(-c2cccc3c2Oc2ccc(NC4CCC5(CC4)OCCO5)cc2C3)[nH]1 [Example 2-2-62, 6-(7-(1,4-Dioxaspiro[4.5]decan-8-ylamino)-9H-xanthen-4-yl)-4-morpholino pyridin-2(1H)-one]	100 to 500 nM
O=c1cc(N2CCOCC2)cc(-c2cc(F)cc3c2Oc2ccc(NCc4cncc(Cl)c4)cc2C3)[nH]1 [Example 2-48-3, 6-(7-(((5-Chloropyridin-3-yl)methyl)amino)-2-fluoro-9H-xanthen-4-yl)-4-morpholinopyridin-2(1H)-one]	100 to 500 nM
Cc1cnc(C(COCCN(C)C)Nc2ccc3c(c2)Sc2cccc(-c4cc(N5CCOCC5)cc(=O)[nH]4)c2S3)nc1 (centres unmarked) [Example 1-12-104, 6-(7-((2-(2-(Dimethylamino)ethoxy)-1-(5-methylpyrimidin-2-yl)ethyl)amino)thianthren-1-yl)-4-morpholino pyridin-2(1H)-one]	100 to 500 nM
COc1ccnc(C(C)Nc2ccc3c(c2)Cc2cccc(-c4cc(N5CCOCC5)cc(=O)[nH]4)c2O3)c1 (single isomer, unassigned) [Example 2-14-86-1, 6-(7-((1-(4-methoxypyridin-2-yl)ethyl)amino)-9H-xanthen-4-yl)-4-morpholinopyridin-2(1H)-one]	100 to 500 nM
CN1CCC(CNc2ccc3c(c2)Sc2cccc(-c4cc(N5CCOCC5)cc(=O)[nH]4)c2S3)CC1 [Example 1-12-31, 6-(7-(((1-Methylpiperidin-4-yl)methyl)amino)thianthren-1-yl)-4-morpholino pyridin-2(1H)-one]	100 to 500 nM
Cc1cccc(C(Nc2ccc3c(c2)Sc2cccc(-c4cc(N5CCOCC5)cc(=O)[nH]4)c2S3)C2CCNC2)n1 (centres unmarked) [Example 1-20-14, 6-(7-(((6-Methylpyridin-2-yl)(pyrrolidin-3-yl)methyl)amino)thianthren-1-yl)-4-morpholino pyridin-2(1H)-one]	100 to 500 nM
